# Measurements published in patent US20110245334A1, “USE OF RACEMATES OF PINOCEMBRIN IN PREPARING MEDICAMENTS FOR TREATING STROKE” (CSPC Zhonggi Pharmaceutical Technology (Shijiazhuang) Co. …, priority 2008, published 2011).
# What was measured:
# MCAO rats = experiment: Cerebral edema and Evans blue / fluorescein sodium leakage, MCAO; assay type: in vivo, rat; details: 24 hours
# Method: After surgery, a mixture solution of EB/NF (0.5%, dissolved in normal saline) of 0.25 ml was immediately (immediately after administration in the administration groups) injected via tail vein in the animals. 24 hours later, a normal saline was perfused in the hearts of the rats to get rid of unbound dye. The rats were decollated and the brain tissues were promptly removed and separated into ischemic hemisphere and non-ischemic hemisphere. The two hemispheres were weighted respectively and homogenated with 7.5% (w/v) trichloroacetic acid (TCA). The homogenate was divided into two parts, in which 1 ml homogenate was adjusted with 52 μl NaOH (5N) to reach a neutral pH value, and 200 μl of it was taken out to determine the fluorescence intensity (excitation 485 nm, emission 535 nm), the NF thereof was determined by using a standard curve made with NF solutions of concentration series. Another part of homogenate was centrifuged for 20 min at 12000 g and 4° C. 200 μl supernatant was taken out to a microplate and its absorbance was determined at 620 nm, and EB thereof was determined by using a standard curve made with EB solutions of concentration series. The results were expressed in form of μg EB (or NF)/g brain wet weight. Percentage of brain edema was expressed as: (brain weight in ischemic hemisphere−brain weight in non-ischemic hemisphere)/brain weight in non-ischemic hemisphere×100%.
# [1] = system: TNF-α, IL-1β, ICAM-1, VCAM-1, iNOS, AQP-4; experiment: Expression of TNF-α, IL-1β, ICAM-1, VCAM-1, iNOS and AQP-4 in ischemic cerebral tissue (FIG. 2); assay type: in vivo, rat
# Excerpt: B is a statistic chart that quantifies the expression of TNF-α, IL-1β, ICAM-1, VCAM-1, iNOS and AQP-4 with β-actin as internal standard.
# With β-actin as internal standard, the expressions of TNF-α, IL-1β, ICAM-1, VCAM-1, iNOS, AQP-4 were quantified, and the inhibition effects of pinocembrin racemate on the above proteins were seen intuitively.
# [2] = system: cerebral ischemic tissue in MCAO rats; experiment: Energy metabolism indexes in cerebral ischemic tissue, MCAO; assay type: in vivo, rat; details: for increase of energy index relative to the model group: 24 hours of cerebral ischemia; for ADP / AMP / ATP / CrP / Energy Load: cerebral ischemic tissue, MCAO rats
# Excerpt: The obtained r values were respectively rATP=0.9897, rADP=0.9896, rAMP=0.9893, rCrP=0.9981. The recovery rates of 4 kinds of standard materials were respectively (86.6±5.6) %, (94.45±7.5) %, (83.4±6.1) %, (78.69±7.3) %.
# in vivo = details: SD, rat, iv
# [3] = 24 h after ischemia, 3 mg/kg, 10 mg/kg, 30 mg/kg in early stage of ischemia, FIG. 2
compound,measurement,setting,value
"O=C1CC(c2ccccc2)Oc2cc(O)cc(O)c21 (racemic) [Pinocembrin racemate, pinocembrin racemate]",EB leakage (μg/g tissue),MCAO rats; 3 mg/kg iv,6.16 ± 0.4 μg/g tissue
same,NF leakage (μg/g tissue),MCAO rats; 3 mg/kg iv,1.48 ± 0.08 μg/g tissue
same,Percentage of brain edema volume (%),"MCAO rats; 3 mg/kg iv, 3 mg/kg",5.5±1.7%
same,EB leakage (μg/g tissue),MCAO rats; 10 mg/kg iv,5.03 ± 0.8 μg/g tissue
same,NF leakage (μg/g tissue),MCAO rats; 10 mg/kg iv,1.39 ± 0.20 μg/g tissue
same,Percentage of brain edema volume (%),"MCAO rats; 10 mg/kg iv, 10 mg/kg",4.1±1.5%
same,EB leakage (μg/g tissue),MCAO rats; 30 mg/kg iv,4.39 ± 0.4 μg/g tissue
same,NF leakage (μg/g tissue),MCAO rats; 30 mg/kg iv,1.30 ± 0.15 μg/g tissue
same,Percentage of brain edema volume (%),"MCAO rats; 30 mg/kg iv, 30 mg/kg",3.2±2.1%
same,expression of cytokines TNF-α and IL-1β in cerebral ischemia tissue,[1]; [3],"inhibited the expression of TNF-α, IL-1β in some extents"
same,expression of iNOS and AQP-4 protein,[1]; [3],inhibited the expression of iNOS and AQP-4 protein in some extents
same,"inhibition of expression of TNF-α, IL-1β, ICAM-1, VCAM-1, iNOS, AQP-4 quantified with β-actin as internal standard",[1]; doses of 10 mg/kg and 30 mg/kg,showed better results
same,increase of energy index relative to the model group,"[2]; first of two values printed for groups 3, 10, 30 mg/kg",34.6%
same,increase of energy index relative to the model group,"[2]; second of two values printed for groups 3, 10, 30 mg/kg",45.8%
same,ADP,[2]; 3 mg/kg,0.31 ± 0.04 µmol/g
same,AMP,[2]; 3 mg/kg,0.02 ± 0.00 µmol/g
same,ATP,[2]; 3 mg/kg,1.18 ± 0.18 µmol/g
same,CrP,[2]; 3 mg/kg,3.98 ± 1.23 µmol/g
same,Energy Load,[2]; 3 mg/kg,0.73 ± 0.23
same,ADP,[2]; 10 mg/kg,0.35 ± 0.06 µmol/g
same,AMP,[2]; 10 mg/kg,0.02 ± 0.00 µmol/g
same,ATP,[2]; 10 mg/kg,1.62 ± 0.21 µmol/g
same,CrP,[2]; 10 mg/kg,4.12 ± 1.25 µmol/g
same,Energy Load,[2]; 10 mg/kg,0.88 ± 0.23
same,ADP,[2]; 30 mg/kg,0.38 ± 0.05 µmol/g
same,AMP,[2]; 30 mg/kg,0.02 ± 0.00 µmol/g
same,ATP,[2]; 30 mg/kg,1.97 ± 0.58 µmol/g
same,CrP,[2]; 30 mg/kg,4.43 ± 1.34 µmol/g
same,Energy Load,[2]; 30 mg/kg,0.96 ± 0.29
same,LD50,in vivo,491 mg/kg
